Assay results taken from patent US20050186137A1, “Novelty-induced hypophagia-based assays for identifying agents to treat anxiety and depression” (priority 2003, published 2005).

Legend:
[1] = system: BALB/cJ, DBA/2J, C57BL/6J, and 129SvEv mice; assay: Modified forced swim test, strain comparison; format: in vivo, mouse
Method: For the strain comparison study, 36 male mice of four strains (BALB/cJ, DBA/2J, C57BL/6J, 129SvEv) were subjects for a total of 144 mice. Mice were tested in the OF beginning on day 30 or 33 of chronic fluoxetine treatment. Mice were tested for 15 min on three consecutive days to maximize activity levels. Mice were then tested in the modified FST on day 36 or 37.
Modified forced swim test: Mice were placed into 19 cm diameter plastic buckets which were 23 cm deep filled with 23°-25° C. water, and videotaped for six minutes. Only the last four minutes were scored for four measures: swimming, immobility, climbing, or other. The predominant behavior was recorded every 5 sec. For chronic and subchronic fluoxetine studies in BALB/cJ mice, mice were pre-exposed to the FST for 6 min 24 hours before test day to increase sensitivity for detecting antidepressant behavioral effects (Borsini et al., 1989).
Modified forced swim test: Two-factor ANOVAs with fluoxetine as a between-subjects factor and block (1 min intervals) as a within-subject factor were applied to three different measures: swimming, immobility, and climbing. Significant main effects of fluoxetine and interactions were resolved using post-hoc ANOVAs with adjusted p-values, and/or Newman-Keuls post-hoc tests.

[2] = administration of fluoxetine in the drinking water; cited from earlier work
[3] = Serum fluoxetine levels by liquid chromatography with fluorescence detection; format: in vivo, mouse; details: Balb/cJ mice
Method: Fluoxetine was a generous gift from Lilly (Indianapolis, Ind.), and was delivered ad libitum in the drinking water. Fluoxetine was dissolved in tap water and changed weekly. For initial strain comparison studies, daily drinking was measured and the concentration of fluoxetine solutions were adjusted to deliver 0, 5, or 10 mg/kg/day of fluoxetine to each strain. For subchronic and chronic studies in BALB/cJ mice, 80-mg/L, 160 mg/L, and 240 mg/L fluoxetine was given, and drinking was recorded throughout the study. Fluoxetine plasma levels were determined by liquid chromatography with fluorescence detection (Suckow et al., 1992) for chronically treated Balb/cJ mice. 5-methoxy-3(1,2,3,6)tetrahydropyridin-4-yl-1H-indole (RU24969) was obtained from Tocris Cookson (Ellisville, Mo.), dissolved in saline, and delivered i.p. (5 ml/kg) with 26 gauge needles. Both drugs were protected from light.

[4] = patients taking 20-80 mg/day Prozac; cited from earlier work
BALB/cJ mice = assay: Prepulse inhibition of startle; format: in vivo, mouse
Method: For chronic fluoxetine studies in BALB/cJ mice, 60 male BALB/cJ mice were tested in the OF for 30 min on days 19 or 20 of chronic fluoxetine treatment. Mice were then pretested and tested in the modified FST on days 21 and 22, respectively. Animals were then allowed to adapt to being singly housed, and were trained for NIH on days 25-27. Home cage and novel cage testing occurred on days 28 and 29, respectively. Mice were then assessed for PPI on days 34 or 35.
Studies of subchronic fluoxetine were conducted using separate groups of 60 male BALB/cJ mice to prevent fluoxetine treatment from exceeding one week. One group was tested in the OF after one day of subchronic fluoxetine treatment. Mice were then pretested after 6 and tested after 7 days of subchronic fluoxetine treatment in the modified FST. A second group of BALB/cJ mice began fluoxetine treatment after being singly housed. They were then tested in the NIH test after 4 (home) and 5 (novel) days of subchronic fluoxetine treatment. A third group was tested for PPI after one or two days of subchronic fluoxetine treatment.
Prepulse Inhibition: Startle experiments were performed in MED-Associates chambers. Nonrestrictive Plexiglas cylinders 5 cm in diameter rested on a Plexiglas platform with a transducer amplifier. The sound-dampening isolation chambers were ventilated, well-lit, and equipped with an acoustic stimulator. Data acquisition was performed using Med-Associates software.
Five different trial types were presented in the test session: a 40-msec broadband 120 dB burst (PULSE ALONE trial); three different PREPULSE+PULSE trials in which 20-msec long 3 dB (pp3), 6 dB (pp6), or 12 dB (pp12) stimuli above a 70 dB background preceded the 120 dB pulse by 100 msec (onset to onset), and a NO STIMULUS trial, in which only the background noise was presented. Trials were presented in a pseudo-random order. A variable interval of 10-20 seconds separated trials.
The test session consisted of 62 test trials. The session began with a 10 min acclimation period, followed by four consecutive blocks of test trials. Blocks one and four consisted of six consecutive PULSE ALONE trials, while blocks two and three contained six PULSE ALONE trials, five pp3+p120 trials, five pp6+p120 trials, five pp12+p120 trials, and four NO STIMULUS trials. Analyses were performed using average values for each trial type.
Prepulse Inhibition: PPI was calculated as the averaged startle magnitude caused by PULSE ALONE trials from blocks two and three, minus the averaged startle magnitude caused by the prepulse-pulse trials, all divided by the averaged PULSE ALONE values from blocks two and three. The resulting value was multiplied by 100 and presented as a percent PPI value. Four-factor ANOVAs with fluoxetine and RU24969 as between subjects factors and prepulse intensity and block as within subjects variables assessed percent PPI levels. Interactions were resolved using post-hoc ANOVAs with adjusted p-values, and/or Newman-Keuls post-hoc tests.

[5] = BALB/cJ mice, chronic 10 mg/kg/day, relative to 5 mg/kg/day and controls

CNCCC(Oc1ccc(C(F)(F)F)cc1)c1ccccc1 (stereo not drawn) [fluoxetine]
immobility [1, 5]: decreased immobility
swimming [1, 5]: increased swimming
sensitivity to chronic treatment in the modified FST across strains ([1]; BALB/cJ, DBA/2J, C57BL/6J, 129SvEv, chronic 5 or 10 mg/kg/day): BALB/cJ was the only strain showing sensitivity
climbing ([1]; chronic fluoxetine 5 or 10 mg/kg/day): No effects
time by which steady state blood levels have been achieved [2]: ≤ 5 days
Serum fluoxetine levels ([3]; chronic fluoxetine 10 mg/kg/day (80 mg/L drinking water)): 170.3 ± 57.8 ng/mL
Serum fluoxetine levels ([3]; chronic fluoxetine 18 mg/kg/day (160 mg/L drinking water)): 563.4 ± 118.4 ng/mL
Serum fluoxetine levels ([3]; chronic fluoxetine 25 mg/kg/day (240 mg/L drinking water)): 1779.2 ± 364.9 ng/mL
range of plasma levels found in patients [4]: 100 to 700 ng/mL
PPI in RU24969-treated mice (BALB/cJ mice; chronic 10 mg/kg/day fluoxetine, 12 dB prepulse intensity): increased PPI relative to RU24969-treated mice receiving 0 and 18 mg/kg/day fluoxetine
Startle reactivity, interactions of RU24969 with fluoxetine (BALB/cJ mice; chronic fluoxetine): no interactions
RU24969-induced disruption of PPI (BALB/cJ mice; chronic fluoxetine 10, 18, 25 mg/kg/day, 10 mg/kg RU24969, 3, 6, 12 dB prepulse): RU24969 disrupted PPI in control mice, but not mice treated with any dose of fluoxetine
PPI, fluoxetine alone (BALB/cJ mice; chronic fluoxetine without RU24969): No effects
PPI, interactions of RU24969 with fluoxetine (BALB/cJ mice; subchronic fluoxetine (1-2 days)): No interactions
startle reactivity in the second and third blocks (BALB/cJ mice; subchronic fluoxetine study (1-2 days), 10 mg/kg RU24969): no effects
